# Article PMC9030166, “Natural Phaeosphaeride A Derivatives Overcome Drug Resistance of Tumor Cells and Modulate Signaling Pathways” (Pharmaceuticals, 2022)
# Legend:
# A431 cells = assay: IC50 on A431 cells (xCelligence RTCA cell index); type: cell-based; settings: Homo sapiens, A-431
# Excerpt: A431 cells are characterized by a high inducibility of transcription factors STAT3 and STAT5. In turn, phaeosphaeride A and its derivatives are probably inhibitors of the STAT3 gene. Therefore, the A431 cell line was chosen as a model for searching for possible targets for the action of phaeosphaeride A derivatives. Table 7 presents IC50 data for phaeosphaeride A derivatives on A431 cells.
# (§1) The effect of various concentrations of PPA derivatives on the cell culture was studied using xCelligence RTCA equipment (AceaBioscience, San Diego, CA, USA). The concentration closest to the IC50 (10 μM) was chosen as the experimental concentration. The selected concentration of phaeosphaeride A derivatives allows for the assessment of the early effect of compounds on cells and compares their effectiveness. In this experiment, the signaling pathways Akt (pSer473), p70S6K (pThr412), NFkB (p65-pSer536), and CREB (pSer133) were not activated (Table 8). The stress-activated signaling pathways ERK/MAP kinase 1/2 (pThr185/pTyr187), JNK (pThr183/pTyr185), and p38 (pThr180/pTyr182) were activated for these compounds.
# To determine the integral cellular response using the xCelligence RTCA equipment (AceaBioscience, Santa Clara, CA, USA), 20 thousand cells were inoculated into a well of a specialized plate allowing the determination of the cell index in real time and cultured in complete growth medium. The next day after the seeding, the medium was replaced with an experimental one (compounds at concentrations of […]). The cell index was monitored for 3 days after the addition of the xenobiotic. The concentration closest to the IC50 (10 μM) was chosen as the experimental concentration.
# CREB (pSer133) = assay: MILLIPLEX MAP 9-Plex, CREB active form in A431 lysates; type: cell-based, human; settings: A431 cell lysates, 10 μM, 1 h, M ± mx; control 154.5 ± 34.2
# Excerpt: (§2) We used the MILLIPLEX MAP Multi-Pathway Magnetic Bead 9-Plex-Cell Signaling Multiplex Assay, which allows the simultaneous detection of nine phosphorylated proteins that are markers of the main intracellular signaling pathways (phosphorylation site is indicated in parentheses), a universal transcription factor that controls the expression of immune response genes; apoptosis and cell cycle NFκB (pS536); cAMP-dependent transcription factor (CREB (pS133); mitogen-activated kinase p38 (pT180/pY182); stress-activated protein kinase JNK (pT183/pY185); ribosomal […]; transcription factors STAT3 (pS727) and STAT5A/B (pY694/699); protein kinase B (Akt) (pS473); and kinase regulated by extracellular signals ERK1/2 (pT185/pY187).
# as §1
# (§3) We used a MILLIPLEX MAP Multi-Pathway Magnetic Bead 9-Plex-Cell Signaling Multiplex Assay kit (Merck/Millipore), according to the manufacturer’s protocol. A431 cells were cultured in DMEM with 10% FBS in 24-well plates. Compounds were added to the subconfluent cells at a concentration of 10 μM in DMEM medium for 1 h. Each compound was added in 5 experimental repeats. Cell lysates were prepared with lysis buffer (Millipore) with protease inhibitors (Complete, Roche); the protein concentration in the lysates was determined by the Lowry method. In samples equalized in protein concentration, the active forms of kinase cascades were determined using a Bio-Plex 200 fluorescent analyzer (Bio-Rad).
# STAT3/DNA binding = target: STAT3/DNA binding; set-up: method as in PMID 18668431; settings: read-out: IC50 value, inhibition of STAT3/DNA binding; cited from earlier work
# [1] = test system: ERK 1/2 (pThr185/pTyr187); assay: MILLIPLEX MAP 9-Plex, ERK 1/2 active form in A431 lysates; type: cell-based, human; settings: 10 μM
# Excerpt: as §2, §1, §3
# p38 (pThr180/pTyr182) = assay: MILLIPLEX MAP 9-Plex, p38 active form in A431 lysates; type: cell-based, human; settings: 10 μM
# Excerpt: as §2, §1, §3
# JNK (pThr183/pTyr185) = assay: MILLIPLEX MAP 9-Plex, JNK active form in A431 lysates; type: cell-based, human; settings: 10 μM
# Excerpt: as §2, §1, §3
# p70S6K (pThr389/412) = assay: MILLIPLEX MAP 9-Plex, p70S6K active form in A431 lysates; type: cell-based, human; settings: A431 cell lysates, 10 μM, 1 h, M ± mx; control 39.9 ± 7.2
# Excerpt: as §2, §1, §3
# STAT3 (pSer727) = assay: MILLIPLEX MAP 9-Plex, STAT3 active form in A431 lysates; type: cell-based, human; settings: A431 cell lysates, 10 μM, 1 h, M ± mx; control 70.7 ± 18.3
# Excerpt: as §2, §1, §3
# Akt (pSer473) = assay: MILLIPLEX MAP 9-Plex, Akt active form in A431 lysates; type: cell-based, human; settings: A431 cell lysates, 10 μM, 1 h, M ± mx; control 76.4 ± 16.9
# Excerpt: as §2, §1, §3
# STAT5 (pTyr694/699) = assay: MILLIPLEX MAP 9-Plex, STAT5 active form in A431 lysates; type: cell-based, human; settings: A431 cell lysates, 10 μM, 1 h, M ± mx; control 44.2 ± 10.2
# Excerpt: as §2, §1, §3
smiles,measurement,setting,value
"C=C1C2=C(C(=O)N1OC)[C@H](O)[C@@](C)(O)[C@H](CCCCC)O2 [PPA, phaeosphaeride A]",IC50,A431 cells,> 50 µM
same,CREB (pSer133) fluorescence intensity,CREB (pSer133),291.0 ± 32.8 *↑ rel. units
same,IC50,STAT3/DNA binding,610 µM
same,ERK ½ (pThr185/pTyr187) fluorescence intensity,"[1]; A431 cell lysates, 1 h, M ± mx, control 839.7 ± 248.9",995.4 ± 46.5 rel. units
same,"activation of signaling pathway ERK/MAP kinase 1/2 (pThr185/pTyr187), in words",[1]; A431 cells,only slightly activated
same,p38 (pThr180/pTyr182) fluorescence intensity,"p38 (pThr180/pTyr182); A431 cell lysates, 1 h, M ± mx, control 567.7 ± 266.6",1459.1 ± 117.6 *↑ rel. units
same,"activation of signaling pathway p38 (pThr180/pTyr182), in words",p38 (pThr180/pTyr182); A431 cells,only slightly activated
same,JNK (pThr183/pTyr185) fluorescence intensity,"JNK (pThr183/pTyr185); A431 cell lysates, 1 h, M ± mx, control 50.9 ± 10.5",132.8 ± 9.1 *↑ rel. units
same,"activation of signaling pathway JNK (pThr183/pTyr185), in words",JNK (pThr183/pTyr185); A431 cells,only slightly activated
same,p70S6K (pThr389/412) fluorescence intensity,p70S6K (pThr389/412),46.1 ± 2.9 rel. units
same,STAT3 (pSer727) fluorescence intensity,STAT3 (pSer727),128.8 ± 2.4 *↑ rel. units
same,Akt (pSer473) fluorescence intensity,Akt (pSer473),123.5 ± 4.9 *↑ rel. units
same,STAT5 (pTyr694/699) fluorescence intensity,STAT5 (pTyr694/699),82.5 ± 3.5 *↑ rel. units
